What was measured:
[1] = Plasma concentrations in repeat-dosing study, satellite rats; assay type: in vivo, rat; conditions: for Plasma concentration: rat, mean±SEM; for Plasma concentration at Tmax / Terminal plasma concentration at Tmax: satellite rats; for Plasma concentration at Tmax: day 1; for Terminal plasma concentration at Tmax: last day of study
Description: Mean arterial pressure was assessed in conscious, freely moving male Sprague Dawley rats (n = 6–8/group; Charles River) instrumented with telemetry transmitters (DSI-Ponemah) and housed in metabolism cages as previously described, [26]. Tested compounds were solubilized in a 0.5% Methylcellulose/0.015% Tween 80 vehicle that was also dosed alone (p.o./QD, 5 mL/kg) as a control in the study. FTY720 was administered p.o. at 0.3, 1.0, 3.0, 10.0 mg/kg p.o. as a single dose or p.o./QD at 0.5, 1.5, and 5.0 mg/kg in a chronic study. BAF312 was administered p.o/QD at 0.3, 3.0, and 30 mg/kg as a single dose and in a chronic study. Mean arterial pressure and heart rate are shown as 1-hr and/or 24-hr mean values±SEM as described in the results. Blood samples in satellite rats were withdrawn at various timepoints as described in the results for analysis of plasma concentrations of the parent compound and, in the case of FTY720, also the phosphorylated metabolite, (S)-FTY720-P. Statistical analysis for the single-dose acute studies was based on one-way ANOVA to compare the treatment groups vs. vehicle for each time period after dosing (0–24 hrs, 24–48 hrs, and 48–72 hrs); statistical significance (p<0.05) was detected by Dunnett’s post-hoc test to compare treatment with vehicle controls. The statistical analysis in the chronic studies were based on one-way ANOVA with repeated measures to compare the treatment arms; statistical significance (p<0.05) was detected by Dunnett’s post-hoc test to compare treatment with vehicle controls.

[2] = Plasma concentrations during escalating i.v. infusion in anesthetized rats; assay type: in vivo; conditions: anesthetized rat, FTY720 i.v.
Description: The cardiovascular effects of FTY720 and BAF312 were tested in anesthetized rats (180–200 g). In brief, male Sprague Dawley rats (Charles River) were anesthetized with Inactin (110 mg/kg i.p.) and a tracheotomy performed. The femoral artery and veins were catheterized for measurement of mean arterial pressure and heart rate, collection of blood samples at 20-min intervals (0.2 mL/sample), and for compound infusion/hydration as previously described, [24]; blood samples were also withdrawn in vehicle-treated control rats. FTY720, infused as a hydrochloride salt (0.1, 0.3, 1.0 mg/kg/20-min free base equivalent solubilized in a 100% PEG-400 vehicle), or BAF312 (0.5, 1.5, 5.0 mg/kg/20-min solubilized in a 100% PEG-400 vehicle) were administered via three escalating 20-min infusions (0.011 mL/min) followed by a 1-hr post-treatment period. A blood sample was withdrawn at 20, 40, 60, and 120-minutes for analysis of plasma concentrations of the parent compound, and in the case of FTY720, also the phosphorylated metabolite, (S)-FTY720-P. Statistical significance (p<0.05) was based on a t-test comparing treatment change from baseline (baseline was defined as the period from −30 to 0 minutes) vs. vehicle controls change from baseline at each timepoint without adjustment for multiple comparisons. In a separate group of anesthetized rats in which left ventricular (LV) contractility was also recorded with a Millar pressure transducer introduced into the left ventricle, BAF312 was infused in the same dosing regimen as the studies described above (0.5, 1.5, 5.0 mg/kg/20-min solubilized in a 100% PEG-400 vehicle) and effects on LV dP/dtmax were recorded.

Plasma concentration ([1]; FTY720 0.5 mg/kg/d p.o., Day 1, 4 hr post-dose): 46 ± 5 nM | Plasma concentration ([1]; FTY720 0.5 mg/kg/d p.o., Day 1, 8 hr post-dose): 103 ± 24 nM | Plasma concentration ([1]; FTY720 0.5 mg/kg/d p.o., Day 1, 24 hr post-dose): 65 ± 23 nM | Plasma concentration ([1]; FTY720 0.5 mg/kg/d p.o., Terminal (last day), 0-hr): 141 ± 31 nM | Plasma concentration ([1]; FTY720 0.5 mg/kg/d p.o., Terminal (last day), 4 hr post-dose): 229 ± 40 nM | Plasma concentration ([1]; FTY720 0.5 mg/kg/d p.o., Terminal (last day), 8 hr post-dose): 478 ± 303 nM | Plasma concentration ([1]; FTY720 0.5 mg/kg/d p.o., Terminal (last day), 24 hr post-dose): 546 ± 359 nM | Plasma concentration ([1]; FTY720 1.5 mg/kg/d p.o., Day 1, 4 hr post-dose): 231 ± 1 nM | Plasma concentration ([1]; FTY720 1.5 mg/kg/d p.o., Day 1, 8 hr post-dose): 275 ± 55 nM | Plasma concentration ([1]; FTY720 1.5 mg/kg/d p.o., Day 1, 24 hr post-dose): 264 ± 79 nM | Plasma concentration ([1]; FTY720 1.5 mg/kg/d p.o., Terminal (last day), 0-hr): 690 ± 136 nM | Plasma concentration ([1]; FTY720 1.5 mg/kg/d p.o., Terminal (last day), 4 hr post-dose): 800 ± 77 nM | Plasma concentration ([1]; FTY720 1.5 mg/kg/d p.o., Terminal (last day), 8 hr post-dose): 647 ± 121 nM | Plasma concentration ([1]; FTY720 1.5 mg/kg/d p.o., Terminal (last day), 24 hr post-dose): 560 ± 70 nM | Plasma concentration ([1]; FTY720 5.0 mg/kg/d p.o., Day 1, 4 hr post-dose): 506 ± 74 nM | Plasma concentration ([1]; FTY720 5.0 mg/kg/d p.o., Day 1, 8 hr post-dose): 696 ± 279 nM | Plasma concentration ([1]; FTY720 5.0 mg/kg/d p.o., Day 1, 24 hr post-dose): 773 ± 55 nM | Plasma concentration ([1]; FTY720 5.0 mg/kg/d p.o., Terminal (last day), 0-hr): 2344 ± 356 nM | Plasma concentration ([1]; FTY720 5.0 mg/kg/d p.o., Terminal (last day), 4 hr post-dose): 2913 ± 238 nM | Plasma concentration ([1]; FTY720 5.0 mg/kg/d p.o., Terminal (last day), 8 hr post-dose): 1508 ± 316 nM | Plasma concentration ([1]; FTY720 5.0 mg/kg/d p.o., Terminal (last day), 24 hr post-dose): 1561 ± 230 nM | Plasma concentration at Tmax ([1]; FTY720 0.5 mg/kg/d p.o.): 103 ± 24 nM | Terminal plasma concentration at Tmax ([1]; FTY720 0.5 mg/kg/d p.o.): 546 ± 358 nM | Plasma concentration at Tmax ([1]; FTY720 1.5 mg/kg/d p.o.): 275 ± 55 nM | Terminal plasma concentration at Tmax ([1]; FTY720 1.5 mg/kg/d p.o.): 800 ± 77 nM | Plasma concentration at Tmax ([1]; FTY720 5.0 mg/kg/d p.o.): 773 ± 55 nM | Terminal plasma concentration at Tmax ([1]; FTY720 5.0 mg/kg/d p.o.): 2913 ± 92 nM | Plasma concentration ([2]; end of 0.1 mg/kg/20 min infusion, listed as phosphorylated FTY720, 0.1 mg/kg): 285 ± 87 nM | Plasma concentration ([2]; end of 0.3 mg/kg/20 min infusion, listed as phosphorylated FTY720, 0.3 mg/kg): 683 ± 214 nM | Plasma concentration ([2]; end of 1.0 mg/kg/20 min infusion, listed as phosphorylated FTY720, 1 mg/kg): 908 ± 264 nM | Plasma concentration ([2]; end of 60-min post-treatment period, listed as phosphorylated FTY720): 211 ± 17 nM
Compound: CCCCCCCCc1ccc(CC[C@](N)(CO)COP(=O)(O)O)cc1 [FTY720-P]

From article PMC3532212 (PLoS ONE, 2012)
